pIC50: −log10 of the molar value. Calls of active or inactive are those of the source. No cut-off for these calls is given here.
Assays:
[1] = Microsomal stability in human liver microsomes assessed as half life at […] and measured upto 60 mins by LC-MS/MS analysis; format: ADME, Microsome
[2] = Toxicity in BALB/c mouse xenografted with mouse CT26 cells assessed as body weight loss at 30 mg/kg, ip QD and measured upto 9 days in presence of anti-PD-1 antibody cotreatment at 10 mg/kg,ip BIW; format: organism-based; settings: in vivo, 216 h, time < 9 day
HCT-116 [3] = assay: Antiproliferative activity against Wnt-dependent human HCT-116 cells assessed as cell growth inhibition incubated for 48 hrs by CellTiter-Glo assay; format: functional, cell-based
[4] = Toxicity in BALB/c mouse xenografted with mouse CT26 cells assessed as body weight loss at 30 mg/kg, ip QD and measured upto 9 days; format: organism-based; settings: in vivo, 216 h, time < 9 day
CT26 [5] = assay: Antitumor activity in mouse CT26 cells xenografted in BALB/c mouse assessed as increase in Cd8 mRNA expression level in tumor at 30 mg/kg, ip QD by qRT-PCR analysis; format: functional, organism-based
A549 = assay: Antiproliferative activity against Wnt-independent human A549 cells assessed as cell growth inhibition at 40 uM incubated for 48 hrs by CellTiter-Glo assay; format: functional, cell-based
[6] = Toxicity in BALB/c mouse xenografted with mouse CT26 cells assessed as pathological changes in kidney at 30 mg/kg, ip QD in presence of anti-PD-1 antibody cotreatment at 10 mg/kg,ip BIW by hematoxylin and eosin staining based microscopic analysis; format: organism-based; settings: in vivo
CT26 [7] = assay: cells; settings: Mus musculus, CT26, 48 h
HCT-116 [8] = assay: Induction of apoptosis in Wnt-dependent human HCT-116 cells assessed as necrotic cells at 20 uM incubated for 24 hrs by Annexin V-Alexa Fluor 647/PI staining based flow cytomtery (Rvb=1.47%); format: functional
CT26 [9] = assay: Antitumor activity against mouse CT26 cells xenografted in BALB/c mouse assessed as tumor growth inhibition at 30 mg/kg, ip QD and measured upto 9 days; format: functional; settings: CT26, 216 h, time <= 9 day, read-out: TGI
CT26 [10] = assay: Induction of apoptosis in Wnt-dependent mouse CT26 cells assessed as early apoptotic cells at 20 uM incubated for 24 hrs by Annexin V-Alexa Fluor 647/PI staining based flow cytomtery (Rvb=18.3%); format: functional
[11] = Microsomal stability in mouse liver microsomes assessed as intrinsic clearance at […] and measured upto 60 mins by LC-MS/MS analysis; format: ADME, Microsome; settings: read-out: CLH
CT26 [12] = assay: Induction of apoptosis in Wnt-dependent mouse CT26 cells assessed as late apoptotic cells at 20 uM incubated for 24 hrs by Annexin V-Alexa Fluor 647/PI staining based flow cytomtery (Rvb=9.96%); format: functional
HCT-116 [13] = assay: Induction of apoptosis in Wnt-dependent human HCT-116 cells assessed as necrotic cells at 10 uM incubated for 24 hrs by Annexin V-Alexa Fluor 647/PI staining based flow cytomtery (Rvb=1.47%); format: functional
HCT-116 [14] = assay: Induction of apoptosis in Wnt-dependent human HCT-116 cells assessed as late apoptotic cells at 20 uM incubated for 24 hrs by Annexin V-Alexa Fluor 647/PI staining based flow cytomtery (Rvb=14.7%); format: functional
HEK293 [15] = assay: Induction of apoptosis in Wnt-independent human HEK293 cells assessed as necrotic cells at 20 uM incubated for 24 hrs by Annexin V-Alexa Fluor 647/PI staining based flow cytomtery (Rvb=1.82%); format: functional
[16] = Toxicity in BALB/c mouse xenografted with mouse CT26 cells assessed as adverse effect at 30 mg/kg, ip QD and measured upto 9 days; format: organism-based; settings: in vivo, 216 h, time < 9 day
HEK293 [17] = assay: Induction of apoptosis in Wnt-independent human HEK293 cells assessed as early apoptotic cells at 20 uM incubated for 24 hrs by Annexin V-Alexa Fluor 647/PI staining based flow cytomtery (Rvb=17.4%); format: functional
CT26 [18] = assay: Induction of apoptosis in Wnt-dependent mouse CT26 cells assessed as early apoptotic cells at 10 uM incubated for 24 hrs by Annexin V-Alexa Fluor 647/PI staining based flow cytomtery (Rvb=18.3%); format: functional

- half-life [1]: 32.1 min
- pIC50 (CT26 [7]): 4.16
- microsomal CLint [11]: 66.2 µL/min/mg
SMILES: CC(C)c1ccc(-c2cccc(S(=O)(=O)N3CCCC(c4cccc(OC(C)(C)C(=O)NS(=O)(=O)c5ccc(C(F)(F)F)cc5)c4)C3)c2)cc1 (centres undefined)
- Activity [2]: Non-Toxic
- Activity (HCT-116 [3]): Active
- Activity [4]: Non-Toxic
- Activity (CT26 [5]): Active
- Activity (A549): inactive
- Activity [6]: Non-Toxic
- Activity (HCT-116 [8]): 3.22%
- inhibition in vivo at 30 mg/kg (CT26 [9]): 67.6%
- Activity (CT26 [10]): 28%
- Activity (CT26 [12]): 52.6%
- Activity (HCT-116 [13]): 2%
- Activity (HCT-116 [14]): 33.1%
- Activity (HEK293 [15]): 1.69%
- Activity [16]: Non-Toxic
- Activity (HEK293 [17]): 17%
- Activity (CT26 [18]): 24%
